From PubChem BioAssay AID248 (DTP/NCI, 2004)
Where “and” joins values, the source holds several entries; their conditions need not be identical. Equal values may be shown once. Inconclusive results and toxic doses are left out.

Test system: L1210 leukemia ip in BDF1 mice, survival T/C
Experiment: NCI In Vivo Anticancer Drug Screen. Data for tumor model L1210 Leukemia (intraperitoneal) in B6D2F1 (BDF1) mice
Conditions: endpoint: mean survival time, higher = longer survival
Outline: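 Transplanted-tumor mice were given test agent; controls received vehicle only. Survival readings from the two groups were divided (treated over control).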

[1] = dose: 100.0 mg/kg/injection, schedule: Q01DX009 (ip), vehicle: Klucel (hydroxypropylcellulose) (HPC)
[2] = dose: 100.0 mg/kg/injection, schedule: Q04DX003 (ip), vehicle: Klucel (hydroxypropylcellulose) (HPC)
[3] = dose: 200.0 mg/kg/injection, schedule: Q01DX009 (ip), vehicle: Klucel (hydroxypropylcellulose) (HPC)
[4] = dose: 200.0 mg/kg/injection, schedule: Q04DX003 (ip), vehicle: Klucel (hydroxypropylcellulose) (HPC)
[5] = dose: 400.0 mg/kg/injection, schedule: Q01DX009 (ip), vehicle: Klucel (hydroxypropylcellulose) (HPC)
[6] = dose: 50.0 mg/kg/injection, schedule: Q01DX009 (ip), vehicle: saline with Tween-80
[7] = dose: 100.0 mg/kg/injection, schedule: Q01DX009 (ip), vehicle: saline with Tween-80
[8] = dose: 100.0 mg/kg/injection, schedule: Q04DX003 (ip), vehicle: saline with Tween-80
[9] = dose: 200.0 mg/kg/injection, schedule: Q01DX009 (ip), vehicle: saline with Tween-80
[10] = dose: 200.0 mg/kg/injection, schedule: Q04DX003 (ip), vehicle: saline with Tween-80
[11] = dose: 50.0 mg/kg/injection, schedule: Q01DX009 (ip), vehicle: saline
[12] = dose: 100.0 mg/kg/injection, schedule: Q01DX009 (ip), vehicle: saline
[13] = dose: 200.0 mg/kg/injection, schedule: Q01DX009 (ip), vehicle: saline
[14] = dose: 100.0 mg/kg/injection, schedule: Q04DX003 (ip), vehicle: saline
[15] = dose: 200.0 mg/kg/injection, schedule: Q04DX003 (ip), vehicle: saline
[16] = dose: 50.0 mg/kg/injection, schedule: Q01DX001 (ip), vehicle: saline
[17] = dose: 100.0 mg/kg/injection, schedule: Q01DX001 (ip), vehicle: saline

`O=C(Nc1ccccc1F)Nc1ccccc1Cl` was tested, and the T/C (dose: 25.0 mg/kg/injection, schedule: Q01DX009 (ip), vehicle: Klucel (hydroxypropylcellulose) (HPC)) was 95 % of control, the T/C (dose: 50.0 mg/kg/injection, schedule: Q01DX009 (ip), vehicle: Klucel (hydroxypropylcellulose) (HPC)) was 104 % of control and the T/C [1] was 96 % of control. For the same molecule, the T/C [2] was 87 % of control, the T/C [3] was 93 % of control and 92 % of control and the T/C [4] was 89 % of control. For the same molecule, the T/C [5] was 95 % of control and 91 % of control.
In the case of `CCCN([Si](C)(C)C)[Si](C)(C)C`, the T/C [6] is reported as 100 % of control, the T/C [7] is reported as 94 % of control and the T/C [8] is reported as 99 % of control. For the same molecule, the T/C [9] was 100 % of control and the T/C [10] was 106 % of control.
In the case of `CC(C)(C)N1CCC1C(=O)NN` (stereo not given), the T/C [11] is reported as 96 % of control, the T/C [12] is reported as 93 % of control and the T/C [13] is reported as 93 % of control.
With `Cc1csc(N)c1C(N)=O` the T/C [6] was 97 % of control, the T/C (dose: 50.0 mg/kg/injection, schedule: Q04DX003 (ip), vehicle: saline with Tween-80) was 97 % of control and the T/C [7] was 103 % of control. For the same molecule, the T/C [12] was 112 % of control, the T/C [8] was 92 % of control and the T/C [14] was 117 % of control. For the same molecule, the T/C [9] was 102 % of control, the T/C [13] was 100 % of control and the T/C [10] was 97 % of control. For the same molecule, the T/C [15] was 116 % of control, the T/C (dose: 400.0 mg/kg/injection, schedule: Q01DX009 (ip), vehicle: saline with Tween-80) was 103 % of control and the T/C (dose: 400.0 mg/kg/injection, schedule: Q01DX009 (ip), vehicle: saline) was 109 % of control. For the same molecule, the T/C (dose: 400.0 mg/kg/injection, schedule: Q04DX003 (ip), vehicle: saline with Tween-80) was 102 % of control and the T/C (dose: 400.0 mg/kg/injection, schedule: Q04DX003 (ip), vehicle: saline) was 115 % of control.
With `Cc1ncc(CCl)n1Cc1ccccc1` the T/C (dose: 6.25 mg/kg/injection, schedule: Q04DX002 (ip), vehicle: saline) was 95 % of control and 87 % of control, the T/C (dose: 12.5 mg/kg/injection, schedule: Q04DX002 (ip), vehicle: Klucel (hydroxypropylcellulose) (HPC)) was 110 % of control and the T/C (dose: 12.5 mg/kg/injection, schedule: Q04DX002 (ip), vehicle: saline) was 114 % of control and 90 % of control. The T/C (dose: 25.0 mg/kg/injection, schedule: Q01DX009 (ip), vehicle: saline) was 94 % of control and 104 % of control, the T/C (dose: 25.0 mg/kg/injection, schedule: Q04DX002 (ip), vehicle: Klucel (hydroxypropylcellulose) (HPC)) was 95 % of control and the T/C [16] was 96 % of control. For the same molecule, the T/C [11] was 93 % of control and 119 % of control, the T/C (dose: 50.0 mg/kg/injection, schedule: Q04DX002 (ip), vehicle: Klucel (hydroxypropylcellulose) (HPC)) was 100 % of control and the T/C [17] was 97 % of control. For the same molecule, the T/C [12] was 89 % of control and 90 % of control, the T/C [14] was 90 % of control and the T/C [15] was 93 % of control.
In the case of `O=N[O-].O=N[O-].[Co].[NH-]CCN(CC[NH-])CC[NH-]`, the T/C [16] is reported as 108 % of control.
With `CNCC(=O)Nc1ccc(NC(=O)CNC)cc1` the T/C (dose: 100.0 mg/kg/injection, schedule: Q04DX002 (ip), vehicle: Klucel (hydroxypropylcellulose) (HPC)) was 96 % of control and the T/C (dose: 200.0 mg/kg/injection, schedule: Q04DX002 (ip), vehicle: Klucel (hydroxypropylcellulose) (HPC)) was 104 % of control.
For `CC(=O)OCC(COC(C)=O)(OC(COC(C)=O)(COC(C)=O)c1ccc(C)c(C)c1)c1ccc(C)c(C)c1`, the T/C [16] was 97 % of control, the T/C [17] was 100 % of control and the T/C (dose: 200.0 mg/kg/injection, schedule: Q01DX001 (ip), vehicle: saline) was 97 % of control. For the same molecule, the T/C (dose: 400.0 mg/kg/injection, schedule: Q01DX001 (ip), vehicle: saline) was 100 % of control.
In the case of `O=C(Nc1ccc(C2=NCCN2)cc1)c1cncc(C(=O)Nc2ccc(C3=NCCN3)cc2)n1`, the T/C (dose: 31.0 mg/kg/injection, schedule: Q01DX Z (ip), vehicle: carboxymethylcellulose (CMC)) is reported as 109 % of control, the T/C (dose: 62.5 mg/kg/injection, schedule: Q01DX Z (oral), vehicle: water) is reported as 94 % of control and the T/C (dose: 125.0 mg/kg/injection, schedule: Q01DX Z (ip), vehicle: carboxymethylcellulose (CMC)) is reported as 168 % of control. The T/C (dose: 125.0 mg/kg/injection, schedule: Q01DX Z (oral), vehicle: water) was 100 % of control, the T/C (dose: 250.0 mg/kg/injection, schedule: Q01DX Z (ip), vehicle: carboxymethylcellulose (CMC)) was 227 % of control and the T/C (dose: 250.0 mg/kg/injection, schedule: Q01DX Z (oral), vehicle: water) was 97 % of control. The T/C (dose: 500.0 mg/kg/injection, schedule: Q01DX Z (oral), vehicle: water) was 97 % of control.
In the case of `FC(F)(F)c1ccc(Cl)c(NC2=NCCS2)c1`, the T/C (dose: 100.0 mg/kg/injection, schedule: Q01DX001 (ip), vehicle: Klucel (hydroxypropylcellulose) (HPC)) is reported as 114 % of control, the T/C [2] is reported as 97 % of control and the T/C (dose: 200.0 mg/kg/injection, schedule: Q01DX001 (ip), vehicle: Klucel (hydroxypropylcellulose) (HPC)) is reported as 103 % of control. The T/C [4] was 98 % of control, the T/C (dose: 400.0 mg/kg/injection, schedule: Q01DX001 (ip), vehicle: Klucel (hydroxypropylcellulose) (HPC)) was 97 % of control and the T/C (dose: 400.0 mg/kg/injection, schedule: Q04DX003 (ip), vehicle: Klucel (hydroxypropylcellulose) (HPC)) was 88 % of control.
For `O=C1COc2ccc(Cl)cc2N1`, the T/C [1] was 100 % of control, the T/C [3] was 97 % of control and the T/C [5] was 119 % of control.
`C[n+]1c2ccccc2c(N=[N+]=[N-])c2ccccc21` was tested, and the T/C (dose: 6.25 mg/kg/injection, schedule: Q01DX001 (ip), vehicle: suspension in saline) was 98 % of control, the T/C (dose: 12.5 mg/kg/injection, schedule: Q01DX001 (ip), vehicle: suspension in saline) was 98 % of control and the T/C (dose: 12.5 mg/kg/injection, schedule: Q04DX003 (ip), vehicle: suspension in saline) was 97 % of control. For the same molecule, the T/C (dose: 25.0 mg/kg/injection, schedule: Q01DX001 (ip), vehicle: suspension in saline) was 98 % of control, the T/C (dose: 25.0 mg/kg/injection, schedule: Q04DX003 (ip), vehicle: suspension in saline) was 95 % of control and the T/C (dose: 50.0 mg/kg/injection, schedule: Q04DX003 (ip), vehicle: suspension in saline) was 105 % of control.
